Experimental data published in patent publication US20230000773A1, “NOVEL HEADGROUP LIPID COMPOUNDS AND COMPOSITIONS FOR INTRACELLULAR DELIVERY OF THERAPEUTIC AGENTS” (ModernaTX, Inc., priority 2019, published 2023).

How the values were obtained:
hEPO mRNA = assay: hEPO expression in CD1-mice after intravenous administration of nanoparticles; assay type: in vivo; conditions: 6 h after intravenous administration, mRNA dose 0.5 mg/kg, N:P 3.4, compound:DSPC:cholesterol:PEG 2 50:10:38:2
Procedure: The expression of hEPO mRNA in CD1-mice was measured 6 h after intravenous administration of nanoparticles comprising a compound of the disclosure, DSPC, cholesterol, and PEG 2 in a ratio of 50:10:38:2. […] Each composition was dosed to 8 animals at an mRNA dose of 0.5 mg/kg.

[1] = Apparent LNP pKa by 2-(p-toluidino)-6-napthalene sulfonic acid (TNS) assay; assay type: physicochemical; conditions: pH at half of maximum fluorescence
[2] = Heparin-sepharose binding of nanoparticles
[3] = Surface hydrophobicity by Generalized Polarization by Laurdan (GPL); assay type: physicochemical; conditions: normalized Generalized Polarization by Laurdan; higher N-GP = less polar surface
Excerpt: (§1) Nanoparticle compositions including a therapeutic and/or prophylactic can be optimized according to the selection of a compound according to Formula (I), (I-1), (A), (A-1), (A-1a), or (A-1b), the selection of additional lipids, the amount of each lipid in the lipid component, and the wt:wt ratio of the lipid component to the therapeutic and/or prophylactic. Nanoparticle compositions including DSPC as a phospholipid, cholesterol as a structural lipid, PEG 2 as a PEG lipid, and a compound according to Formula (I), (I-1), (A), (A-1), (A-1a), or (A-1b) were prepared. The ratios of the lipids were 50:10:38:2 mol % for the lipid according to Formula (I), (I-1), (A), (A-1), (A-1a), or (A-1b):DSPC:cholesterol:PEG 2.
Laurdan, a fluorescent aminonaphthalene ketone lipid, was post-inserted into the nanoparticle surface and the fluorescence spectrum of Laurdan was collected to determine the normalized Generalized Polarization (N-GP). Higher N-GP indicates a less polar surface.

[4] = Size and polydispersity index of nanoparticles comprising compounds of the disclosure; assay type: physicochemical; conditions: compound:DSPC:cholesterol:PEG 2 50:10:38:2 mol %
Excerpt: Lipid nanoparticles (e.g., empty LNPs or loaded LNPs) may be characterized by a variety of methods. For example, microscopy (e.g., transmission electron microscopy or scanning electron microscopy) may be used to examine the morphology and size distribution of a nanoparticle composition. Dynamic light scattering or potentiometry (e.g., potentiometric titrations) may be used to measure zeta potentials. Dynamic light scattering may also be utilized to determine particle sizes. Instruments such as the Zetasizer Nano ZS (Malvern Instruments Ltd, Malvern, Worcestershire, UK) may also be used to measure multiple characteristics of a nanoparticle composition, such as particle size, polydispersity index, and zeta potential.
as §1, with “2. […]” for “2.”

[5] = Encapsulation efficiency (% EE), ribogreen; assay type: physicochemical; conditions: nanoparticles, compound:DSPC:cholesterol:PEG 2 50:10:38:2 mol %
Excerpt: The efficiency of encapsulation of a therapeutic and/or prophylactic describes the amount of therapeutic and/or prophylactic that is encapsulated or otherwise associated with a lipid nanoparticle (e.g., an empty LNP or a loaded LNP) after preparation, relative to the initial amount provided. The encapsulation efficiency is desirably high (e.g., close to 100%). The encapsulation efficiency may be measured, for example, by comparing the amount of therapeutic and/or prophylactic in a solution containing the lipid nanoparticle (e.g., an empty LNP or a loaded LNP) before and after breaking up the lipid nanoparticle (e.g., an empty LNP or a loaded LNP) with one or more organic solvents or detergents. Fluorescence may be used to measure the amount of free therapeutic and/or prophylactic (e.g., RNA) in a solution.
as §1, with “2. […]” for “2.”

SMILES	LogIC50 (pKa) [1]	Relative % Area Bound by LNP [2] [%]	Average N-GP [3]	PDI [4]	Size (nm) [4] [nm]	% EE (ribogreen) [5] [%]	Avg. [hEPO] mIU/mL (hEPO mRNA) [mIU/mL]
CCCCCCCCC(CC)OC(=O)CCCCCCCN(CCCCCCCC(=O)OC(CCCCCCCC)CCCCCCCC)CCCNC(=S)C1(C)CC1 (stereo not drawn) [Compound 61, Heptadecan-9-yl 8-((3-(1-methylcyclopropane-1-carbothioamido)propyl)(8-oxo-8-(undecan-3-yloxy)octyl)amino)octanoate]	5.95	1.73	0.900	0.375	79.6	49.1	1.52E+03
CCCCCCCCC(CC)OC(=O)CCCCCCCN(CCCCCCCC(=O)OC(CCCCCCCC)CCCCCCCC)CCCNc1ncncc1NC (stereo not drawn) [Compound 35, Heptadecan-9-yl 8-((3-((5-(methylamino)pyrimidin-4-yl)amino)propyl)(8-oxo-8-(undecan-3-yloxy)octyl)amino)octanoate]	7.27	2.90	0.888	0.176	91.2	96	3.71E+05
CCCCCCCCC(CC)OC(=O)CCCCCCCN(CCCCCCCC(=O)OC(CCCCCCCC)CCCCCCCC)CCCNC(=O)c1ccc2c(c1)B(O)OC2 (stereo not drawn) [Compound 62, Heptadecan-9-yl 8-((3-(1-hydroxy-1,3-dihydrobenzo[c][1,2]oxaborole-6-carboxamido)propyl)(8-oxo-8-(undecan-3-yloxy)octyl)amino)octanoate]	6.80	3.99	0.890	0.233	124.3	28.3	1.60E+05
CCCCCCCCC(CC)OC(=O)CCCCCCCN(CCCCCCCC(=O)OC(CCCCCCCC)CCCCCCCC)CCCNc1nc2[nH]cnc2c(=O)[nH]1 (stereo not drawn) [Compound 29, Heptadecan-9-yl 8-((3-((6-oxo-6,9-dihydro-1H-purin-2-yl)amino)propyl)(8-oxo-8-(undecan-3-yloxy)octyl)amino)octanoate]	6.68	6.45		0.199	63.5	98.9	8.93E+04
CCCCCCCCC(CC)OC(=O)CCCCCCCN(CCCCCCCC(=O)OC(CCCCCCCC)CCCCCCCC)CCCNc1cc(=O)[nH]c(=O)[nH]1 (stereo not drawn) [Compound 24, Heptadecan-9-yl 8-((3-((2,6-dioxo-1,2,3,6-tetrahydropyrimidin-4-yl)amino)propyl)(8-oxo-8-(undecan-3-yloxy)octyl)amino)octanoate]	6.56	0		0.114	60.8	98.8	2.05E+05
CCCCCCCCC(CC)OC(=O)CCCCCCCN(CCCCCCCC(=O)OC(CCCCCCCC)CCCCCCCC)CCCNC1=NS(=O)(=O)N=C1NC (stereo not drawn) [Compound 2, Heptadecan-9-yl 8-((3-((4-(methylamino)-1,1-dioxido-1,2,5-thiadiazol-3-yl)amino)propyl)(8-oxo-8-(undecan-3-yloxy)octyl)amino)octanoate]	7.65	21.86		0.104	60.8	95.1	6.57E+04

Further lines, with some results ahead:

LogIC50 (pKa) [1]	Relative % Area Bound by LNP [2] [%]	Average N-GP [3]	PDI [4]	Size (nm) [4] [nm]	% EE (ribogreen) [5] [%]	SMILES	Avg. [hEPO] mIU/mL (hEPO mRNA) [mIU/mL]
6.85	31.46	0.655	0.141	81.8	98.5	CCCCCCCCC(CC)OC(=O)CCCCCCCN(CCCCCCCC(=O)OC(CCCCCCCC)CCCCCCCC)CCCNC1=CC(=O)NC1 (stereo not drawn) [Compound 45, Heptadecan-9-yl 8-((3-((5-oxo-2,5-dihydro-1H-pyrrol-3-yl)amino)propyl)(8-oxo-8-(undecan-3-yloxy)octyl)amino)octanoate]	1.15E+05
6.52	1.09	0.582	0.132	58.8	98.2	CCCCCCCCC(CC)OC(=O)CCCCCCCN(CCCCCCCC(=O)OC(CCCCCCCC)CCCCCCCC)CCCNC1=NCC(=O)N1 (stereo not drawn) [Compound 57, Heptadecan-9-yl 8-((3-((4-oxo-4,5-dihydro-1H-imidazol-2-yl)amino)propyl)(8-oxo-8-(undecan-3-yloxy)octyl)amino)octanoate]	4.21E+04
6.71	1.12	0.822	0.109	63.2	96.6	CCCCCCCCC(CC)OC(=O)CCCCCCCN(CCCCCCCC(=O)OC(CCCCCCCC)CCCCCCCC)CCCNS(=O)(=O)c1ccn(C)n1 (stereo not drawn) [Compound 68, Heptadecan-9-yl 8-((3-((1-methyl-1H-pyrazole)-3-sulfonamido)propyl)(8-oxo-8-(undecan-3-yloxy)octyl)amino)octanoate]	4.29E+05
7.05	47.35	0.493	0.142	86.9	98.6	CCCCCCCCC(CC)OC(=O)CCCCCCCN(CCCCCCCC(=O)OC(CCCCCCCC)CCCCCCCC)CCCNS(C)(=N)=O (stereo not drawn) [Compound 58, Heptadecan-9-yl 8-((3-(methylsulfonoamidimidamido)propyl)(8-oxo-8-(undecan-3-yloxy)octyl)amino)octanoate]	9.03E+04
6.81	4.86	0.713	0.155	73.2	96.8	CCCCCCCCC(CC)OC(=O)CCCCCCCN(CCCCCCCC(=O)OC(CCCCCCCC)CCCCCCCC)CCCNS(C)(=O)=O (stereo not drawn) [Compound 65, Heptadecan-9-yl 8-((3-(methylsulfonamido)propyl)(8-oxo-8-(undecan-3-yloxy)octyl)amino)octanoate]	3.64E+05
6.56	0.93	0.812	0.108	66.8	97	CCCCCCCCC(CC)OC(=O)CCCCCCCN(CCCCCCCC(=O)OC(CCCCCCCC)CCCCCCCC)CCCNS(=O)(=O)c1ncc[nH]1 (stereo not drawn) [Compound 69, Heptadecan-9-yl 8-((3-(1H-imidazole-2-sulfonamido)propyl)(8-oxo-8-(undecan-3-yloxy)octyl)amino)octanoate]	2.61E+05
7.59	50.19		0.141	62.5	99.4	CCCCCCCCC(CC)OC(=O)CCCCCCCN(CCCCCCCC(=O)OC(CCCCCCCC)CCCCCCCC)CCCNc1cc[nH]c(=O)n1 (stereo not drawn) [Compound 21, Heptadecan-9-yl 8-((3-((2-oxo-1,2-dihydropyrimidin-4-yl)amino)propyl)(8-oxo-8-(undecan-3-yloxy)octyl)amino)octanoate]	7.04E+04
